Measured values published in patent EP3135113A1, “USE OF HERBICIDAL COMPOSITIONS FOR CONTROLLING UNWANTED VEGETATION” (BASF SE, priority 2015, dated 2017).

System: Amaranthus palmeri
Test: field test, post-emergence spray, visual injury rating of Palmer amaranth (scale 0 to 100)
Type: in vivo
Details: 3 days after treatment, 0.25% by volume non-ionic surfactant (Induce), 185 liter/ha
Text: The following examples summarized in table 1 serve to illustrate the invention: • Dicamba was applied as Engenia™ herbicide [BAPMA salt - (bis(3-aminopropyl)methylamine))], while 2,4-DB was applied as the commercially available Butyrac® 200 (dimethylamine salt). Herbicides were applied at an appropriate weight of each product dissolved in 1 liter of water. All herbicide treatments were applied with 0.25% by volume of a non-ionic surfactant (Induce®; an adjuvant composition consisting of alkyl aryl polyoxyalkane ethers, alkanolamides, dimethyl siloxane and free fatty acids). The spray solution was applied by a CO2 powered backpack sprayer delivering the spray solution at a rate of 185 liter/ha. The spray solution was applied to a field naturally populated with Palmer amaranth (Amaranthus palmeri) with an average height of 4-6 inches in height, however, plants both larger and smaller plants were in the field at the time of application as well. Palmer amaranth was assessed for visual injury 3 days after treatment and injury was rated on a scale from 0 to 100, whereby 0 equals no herbicidal response and 100 equals complete control of the Palmer amaranth.

Row | Compound | herbicidal activity against Amaranthus palmeri (% control) found (Exp. No. 2, 2,4-DB 17.5 g/ha a.i.) [%] | herbicidal activity against Amaranthus palmeri (% control) found (Exp. No. 3, 2,4-DB 35 g/ha a.i.) [%] | herbicidal activity against Amaranthus palmeri (% control) found (Exp. No. 4, 2,4-DB 52.5 g/ha a.i.) [%] | herbicidal activity against Amaranthus palmeri (% control) found (Exp. No. 1, dicamba 420 g/ha a.i.) [%]
1 | 4-(2,4-dichlorophenoxy)butanoic acid [2,4-DB] | 0 | 5 | 15 | –
2 | COc1c(Cl)ccc(Cl)c1C(=O)O [dicamba, 3,6-dichloro-2-methoxybenzoic acid] | – | – | – | 60
